Test results as given in PMC3123436 (Bioorganic & medicinal chemistry, 2011).
Converted amounts (≈) assume the structure as drawn. Like-named read-outs stand apart in the source and are kept apart here.

Assays:
[1] = target: recombinant M. tuberculosis MshC (Mycobacterium tuberculosis, UniProt P9WJM9); type: biochemical
M. tuberculosis CDC1551 = assay: 96 well plate growth inhibition; details: visual, 8–10 d
Vero-E6 cells = details: African green monkey, 2 d
[2] = system: MSH biosynthesis in M. tuberculosis Erdman; assay: MSH and GlcN-Ins levels in M. tuberculosis Erdman cultured 7 d with 2; details: 20–75 μM 2, 7 d culture, two independent experiments
[3] = system: M. tuberculosis Erdman (control strain); assay: 96 well plate growth inhibition
M. tuberculosis Erdman = assay: Inhibition of exponentially growing M. tuberculosis Erdman, 7 d flask culture

Chain of recombinant M. tuberculosis MshC (P9WJM9 whole entry, looked up): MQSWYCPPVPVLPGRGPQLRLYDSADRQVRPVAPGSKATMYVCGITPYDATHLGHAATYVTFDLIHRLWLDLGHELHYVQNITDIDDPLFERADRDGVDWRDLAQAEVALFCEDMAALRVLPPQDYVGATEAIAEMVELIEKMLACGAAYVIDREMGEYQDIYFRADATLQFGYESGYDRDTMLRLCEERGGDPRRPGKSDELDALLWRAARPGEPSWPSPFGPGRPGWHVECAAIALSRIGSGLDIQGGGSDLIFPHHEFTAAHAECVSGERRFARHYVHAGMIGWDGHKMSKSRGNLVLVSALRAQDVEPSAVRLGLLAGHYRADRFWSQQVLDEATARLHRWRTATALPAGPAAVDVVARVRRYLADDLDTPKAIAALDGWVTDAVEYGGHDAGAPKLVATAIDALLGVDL

Compound: O=C(NCCCN1CCOCC1)c1ccc2c(c1)N(Cc1cccc(Cl)c1)C(=O)c1ccccc1S2 [Compound 15]
- MshC inhibition, in words ([1]; SAR discussion): less active than their corresponding sulfoxides

Compound: O=C(NCCN1CCCCCC1)c1ccc2c(c1)N(Cc1cccc(Cl)c1)C(=O)c1ccccc1[S+]2[O-] (stereo not shown) [Compound 20]
- MIC95 (95% inhibition) (M. tuberculosis CDC1551): 110 µM (≈ 59 µg/mL)
- Vero Cell toxicity (MIC90) (Vero-E6 cells): 100 µM

Compound: O=C(NCCCN1CCCC1)c1ccc2c(c1)N(Cc1cccc(Cl)c1)C(=O)c1ccccc1[S+]2[O-] (stereo not shown) [Compound 17]
- MIC95 (95% inhibition) (M. tuberculosis CDC1551): 220 µM (≈ 115 µg/mL)

Compound: Cc1ccc(CN2C(=O)c3ccccc3[S+]([O-])c3ccc(C(=O)NCCCN(C)C4CCCCC4)cc32)c(C)c1 (stereo not shown) [Compound 40]
- MshC inhibition, in words ([1]; SAR discussion): just detectable inhibition

Compound: O=C(NCCCSC1CCCCC1)c1ccc2c(c1)N(Cc1cccc(Cl)c1)C(=O)c1ccccc1[S+]2[O-] (stereo not shown) [Compound 6]
- MshC inhibition, in words ([1]; SAR discussion): complete loss of measurable activity

Compound: Cc1ccc(CN2C(=O)c3ccccc3S(=O)(=O)c3ccc(C(=O)NCCCN4CCOCC4)cc32)c(C)c1 [Compound 43]
- MshC inhibition, in words ([1]; SAR discussion): no measurable inhibition

Compound: CN(CCCNC(=O)c1ccc2c(c1)N(Cc1cccc(Cl)c1)C(=O)c1ccccc1[S+]2[O-])C1CCCCC1 (stereo not shown) [Compound 2, N-[3-(cyclohexylmethylamino)propyl]-10-[(3-chlorophenyl)methyl]-10,11-dihydro-11-oxo-dibenzo-[b,f][1,4]-thiazepine-8-carboxamide-5-oxide]
- MIC95 (95% inhibition) (M. tuberculosis CDC1551): 110 µM (≈ 62.1 µg/mL)
- increase in the level of GlcN-Ins [2]: 9 fold
- MIC95 (95% inhibition) [3]: 28 to 55 µM
- concentration at which inhibition of growth was apparent (M. tuberculosis Erdman): 20 µM
- viable cells relative to day 0 inoculum (M. tuberculosis Erdman; 50 or 75 μM, plating): one-third

Compound: O=C(NCCCN1CCCC1)c1ccc2c(c1)N(Cc1cccc(Cl)c1)C(=O)c1ccccc1S2 [Compound 18]
- MIC95 (95% inhibition) (M. tuberculosis CDC1551): 110 µM (≈ 55.7 µg/mL)
- MshC inhibition, in words ([1]; SAR discussion): less active than their corresponding sulfoxides

Compound: CCC1CCCCN1CCCNC(=O)c1ccc2c(c1)N(Cc1cccc(Cl)c1)C(=O)c1ccccc1[S+]2[O-] (stereo not shown) [Compound 12]
- Vero Cell toxicity (MIC90) (Vero-E6 cells): 100 µM

Compound: CCCN(CCC)CCCNC(=O)c1ccc2c(c1)N(Cc1ccc(F)cc1)C(=O)c1ccccc1[S+]2[O-] (stereo not shown) [Compound 36]
- fold loss in activity compared with 21 [1]: 30 fold

Compound: CC1CCCN(CCCNC(=O)c2ccc3c(c2)N(Cc2ccc(F)cc2)C(=O)c2ccccc2[S+]3[O-])C1 (stereo not shown) [Compound 35]
- fold less active than 3-chlorobenzyl derivative 19 [1]: 5 fold

Compound: O=C(NCCCN1CCOCC1)c1ccc2c(c1)N(Cc1cccc(Cl)c1)C(=O)c1ccccc1[S+]2[O-] (stereo not shown) [Compound 14]
- MshC inhibition, in words [1]: similarly ineffective

Compound: Cc1ccc(CN2C(=O)c3ccccc3S(=O)(=O)c3ccc(C(=O)NCCCN4CCCC4)cc32)c(C)c1 [Compound 42]
- MshC inhibition, in words ([1]; SAR discussion): just detectable inhibition

Compound: CC1CC(C)CN(CCCNC(=O)c2ccc3c(c2)N(Cc2cccc(Cl)c2)C(=O)c2ccccc2[S+]3[O-])C1 (stereo not shown) [Compound 10]
- MshC inhibition, in words [1]: less effective

Compound: CCCCSCCCNC(=O)c1ccc2c(c1)N(Cc1cccc(Cl)c1)C(=O)c1ccccc1[S+]2[O-] (stereo not shown) [Compound 8]
- MshC inhibition, in words [1]: complete loss of measurable activity

Compound: CN(CCCNC(=O)c1ccc2c(c1)N(Cc1ccc(F)cc1)C(=O)c1ccccc1[S+]2[O-])C1CCCCC1 (stereo not shown) [Compound 37]
- fold increase of IC50 / loss in activity compared to 2 [1]: > 35 fold

Compound: CN(CCCNC(=O)c1ccc2c(c1)N(Cc1cccc(Cl)c1)C(=O)c1ccccc1S2)C1CCCCC1 [Compound 5, 10-(3-Chlorobenzyl)-N-(3-(cyclohexyl(methyl)amino)-propyl)-11-oxo-10,11 dihydrodibenzo[b,f][1,4]thiazepine-8-carboxamide]
- MshC inhibition, in words ([1]; SAR discussion): less active than their corresponding sulfoxides

Compound: CC1CCCN(CCCNC(=O)c2ccc3c(c2)N(Cc2cccc(Cl)c2)C(=O)c2ccccc2[S+]3[O-])C1 (stereo not shown) [Compound 19]
- Vero Cell toxicity (MIC90) (Vero-E6 cells): 100 µM

Compound: CCN(CC)CCCNC(=O)c1ccc2c(c1)N(Cc1ccc(C)cc1C)C(=O)c1ccccc1[S+]2[O-] (stereo not shown) [Compound 41]
- MshC inhibition, in words ([1]; SAR discussion): no measurable inhibition
